Measured values taken from PubChem BioAssay (NCI).
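These data come from cells grown in 96-well plates and exposed to compound for 48 hours at five concentrations. GI50 marks 50% less growth. TGI marks complete inhibition of growth.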

Columns and labels:
Assay in all cases: NCI-60 cell line screen, 48 h
SF-539 CNS = system: SF-539 CNS
CCRF-CEM leukemia = system: CCRF-CEM leukemia
EKVX NSCLC = system: EKVX NSCLC
HCT-15 colon = system: HCT-15 colon
HOP-62 NSCLC = system: HOP-62 NSCLC
OVCAR-3 ovarian = system: OVCAR-3 ovarian
MOLT-4 leukemia = system: MOLT-4 leukemia
SR leukemia = system: SR leukemia
MDA-MB-231 breast = system: MDA-MB-231 breast
SK-MEL-2 melanoma = system: SK-MEL-2 melanoma
SK-MEL-28 melanoma = system: SK-MEL-28 melanoma
OVCAR-4 ovarian = system: OVCAR-4 ovarian
T-47D breast = system: T-47D breast
LOX IMVI melanoma = system: LOX IMVI melanoma
K-562 leukemia = system: K-562 leukemia
NCI-H23 lung = system: NCI-H23 lung
IGROV1 ovarian = system: IGROV1 ovarian
UACC-62 melanoma = system: UACC-62 melanoma
NCI-H522 lung = system: NCI-H522 lung
SF-295 CNS = system: SF-295 CNS
PC-3 prostate = system: PC-3 prostate
NCI-H460 lung = system: NCI-H460 lung
CAKI-1 renal = system: CAKI-1 renal
BT-549 breast = system: BT-549 breast
RXF 393 renal = system: RXF 393 renal
HT29 colon = system: HT29 colon
HL-60(TB) leukemia = system: HL-60(TB) leukemia
UACC-257 melanoma = system: UACC-257 melanoma
KM12 colon = system: KM12 colon

## S=C(Nc1ccccc1)c1ccccn1
SF-539 CNS
  GI50: > 100 µM
  TGI: > 100 µM
CCRF-CEM leukemia
  GI50: 3.97 µM
  TGI: 40.4 µM
EKVX NSCLC
  GI50: 42.9 µM
  TGI: > 100 µM
HCT-15 colon
  GI50: 40.3 µM
  TGI: > 100 µM
HOP-62 NSCLC
  GI50: 81.9 µM
  TGI: > 100 µM
OVCAR-3 ovarian
  GI50: 31.6 µM
  TGI: > 100 µM
MOLT-4 leukemia
  GI50: 42.1 µM
  TGI: > 100 µM
SR leukemia
  GI50: 25.5 µM
  TGI: > 100 µM
MDA-MB-231 breast
  GI50: 51.2 µM
  TGI: > 100 µM
SK-MEL-2 melanoma
  GI50: > 100 µM
  TGI: > 100 µM
SK-MEL-28 melanoma
  GI50: > 100 µM
  TGI: > 100 µM
OVCAR-4 ovarian
  GI50: 52.4 µM
  TGI: > 100 µM
T-47D breast
  GI50: > 100 µM
  TGI: > 100 µM
LOX IMVI melanoma
  GI50: 28.2 µM
  TGI: > 100 µM
K-562 leukemia
  GI50: 48.4 µM
  TGI: > 100 µM
NCI-H23 lung
  GI50: 75 µM
  TGI: > 100 µM
IGROV1 ovarian
  GI50: 42.4 µM
  TGI: > 100 µM
UACC-62 melanoma
  GI50: 70.7 µM
  TGI: > 100 µM
NCI-H522 lung
  GI50: 14 µM
  TGI: > 100 µM
SF-295 CNS
  GI50: 32.8 µM
  TGI: > 100 µM
PC-3 prostate
  GI50: 54.7 µM
  TGI: > 100 µM
NCI-H460 lung
  GI50: 63.2 µM
  TGI: > 100 µM
CAKI-1 renal
  GI50: 40.3 µM
  TGI: > 100 µM
BT-549 breast
  GI50: 73.9 µM
  TGI: > 100 µM
RXF 393 renal
  GI50: 40.3 µM
  TGI: > 100 µM
HT29 colon
  GI50: 50.1 µM
  TGI: > 100 µM
HL-60(TB) leukemia
  GI50: 31.3 µM
  TGI: > 100 µM
UACC-257 melanoma
  GI50: > 100 µM
  TGI: > 100 µM
KM12 colon
  GI50: > 100 µM
  TGI: > 100 µM
